# Test results from US8415375B2, “2-hydroxyethyl-1H-quinolin-2-one derivatives and their azaisosteric analogues with antibacterial activity” (Actelion Pharmaceuticals Ltd., priority 2009, dated 2013).
# Key:
# Format in all cases: cell-based
# hERG K+ channel = molecular target: T1, hERG K+ channel (Homo sapiens, UniProt Q12809); experiment: In vitro blocking of hERG K+ channels (QPatch automated patch-clamp, CHO-K1 cells); conditions: pH 7.4, at 10 μM, recombinant hERG in CHO-K1 cells, average block on two cells
# T1 construct: host or cells: CHO-K1 (CHOhERG)
# Description: hERG K^+ channels have been cloned from human heart and recombinant channels are stably expressed in CHO-K1 cells (CHOhERG). These cells have been purchased from bSys GmbH(CH-4052 Basel, Switzerland) and are grown in 150 mL culture flasks at 37° C. in 5% CO2. When the cells are ˜100% confluent, they are detached with 0.25% trypsin-EDTA solution and placed in the cell preparation unit of a QPatch automated patch-clamp robot (Sophion Bioscience A/S, 2750 Ballerup, Denmark).
# Currents through the hERG K^+ channels (IKhERG) are elicited using the following buffer solutions and voltage protocol: • extracellular solution (in mM): [NaCl]=150; [KCl]=4; [CaCl2]=1.2; [MgCl2]=1; [HEPES]=10; pH adjusted to 7.4 with NaOH; • intracellular solution (in mM): [KCl]=140; [NaCl]=10; [MgCl2]=1; [HEPES]=10; [EGTA]=5; [Mg-ATP]=5; [Na3-GTP]=0.1; pH adjusted to 7.2 with KOH; • voltage protocol: the resting potential is −80 mV and the frequency of stimulation is 0.1 Hz. hERG K^+ currents are measured as the average current during the last 20 ms of the 500 ms pulse to −40 mV minus the average current during the last 20 ms of the 50 ms pulse to −40 mV.
# After the cells have stabilized for a few minutes and the currents are steady, the amplitude of IKhERG is recorded under control conditions. Thereafter, the QPatch robot applies the test compound to the cell at the test concentration and, after 4 minutes of stimulation, the amplitude of IKhERG is recorded under test conditions. The ratio of the two amplitudes is used to define a fractional block and the average block on two cells is used to provide the effect of a given concentration (e.g. 10 μM). If, for a given test compound, a sufficient number of concentrations were tested, an apparent IC50 for inhibition of IKhERG is calculated.
# S. aureus 29213 = experiment: Bacterial growth minimal inhibitory concentration (microdilution, cation-adjusted Mueller-Hinton Broth); conditions: Staphylococcus aureus
# Description: Minimal inhibitory concentrations (MICs; mg/l) were determined in cation-adjusted Mueller-Hinton Broth by a microdilution method following the description given in “Methods for Dilution Antimicrobial Susceptibility Tests for Bacteria that Grow Aerobically”, Approved standard, 7th ed., Clinical and Laboratory Standards Institute (CLSI) Document M7-A7, Wayne, Pa., USA, 2006. All Example compounds were tested against several Gram positive and Gram negative bacteria. Typical antibacterial test results are given in Table 1 hereafter (MIC in mg/l).
# S. aureus A798 = experiment: Bacterial growth minimal inhibitory concentration (microdilution), S. aureus A798; conditions: Staphylococcus aureus
# Description: Minimal inhibitory concentrations (MICs; mg/l) were determined in cation-adjusted Mueller-Hinton Broth by a microdilution method following the description given in “Methods for Dilution Antimicrobial Susceptibility Tests for Bacteria that Grow Aerobically”, Approved standard, 7th ed., Clinical and Laboratory Standards Institute (CLSI) Document M7-A7, Wayne, Pa., USA, 2006.
# [drawing 16] using the experimentals methods described above for the MIC regarding S. aureus A798 bacteria and for in vitro blocking hERG K^+ channels gave the results summarised in the Table 2 hereafter.
# T1 sequence (Q12809 whole entry): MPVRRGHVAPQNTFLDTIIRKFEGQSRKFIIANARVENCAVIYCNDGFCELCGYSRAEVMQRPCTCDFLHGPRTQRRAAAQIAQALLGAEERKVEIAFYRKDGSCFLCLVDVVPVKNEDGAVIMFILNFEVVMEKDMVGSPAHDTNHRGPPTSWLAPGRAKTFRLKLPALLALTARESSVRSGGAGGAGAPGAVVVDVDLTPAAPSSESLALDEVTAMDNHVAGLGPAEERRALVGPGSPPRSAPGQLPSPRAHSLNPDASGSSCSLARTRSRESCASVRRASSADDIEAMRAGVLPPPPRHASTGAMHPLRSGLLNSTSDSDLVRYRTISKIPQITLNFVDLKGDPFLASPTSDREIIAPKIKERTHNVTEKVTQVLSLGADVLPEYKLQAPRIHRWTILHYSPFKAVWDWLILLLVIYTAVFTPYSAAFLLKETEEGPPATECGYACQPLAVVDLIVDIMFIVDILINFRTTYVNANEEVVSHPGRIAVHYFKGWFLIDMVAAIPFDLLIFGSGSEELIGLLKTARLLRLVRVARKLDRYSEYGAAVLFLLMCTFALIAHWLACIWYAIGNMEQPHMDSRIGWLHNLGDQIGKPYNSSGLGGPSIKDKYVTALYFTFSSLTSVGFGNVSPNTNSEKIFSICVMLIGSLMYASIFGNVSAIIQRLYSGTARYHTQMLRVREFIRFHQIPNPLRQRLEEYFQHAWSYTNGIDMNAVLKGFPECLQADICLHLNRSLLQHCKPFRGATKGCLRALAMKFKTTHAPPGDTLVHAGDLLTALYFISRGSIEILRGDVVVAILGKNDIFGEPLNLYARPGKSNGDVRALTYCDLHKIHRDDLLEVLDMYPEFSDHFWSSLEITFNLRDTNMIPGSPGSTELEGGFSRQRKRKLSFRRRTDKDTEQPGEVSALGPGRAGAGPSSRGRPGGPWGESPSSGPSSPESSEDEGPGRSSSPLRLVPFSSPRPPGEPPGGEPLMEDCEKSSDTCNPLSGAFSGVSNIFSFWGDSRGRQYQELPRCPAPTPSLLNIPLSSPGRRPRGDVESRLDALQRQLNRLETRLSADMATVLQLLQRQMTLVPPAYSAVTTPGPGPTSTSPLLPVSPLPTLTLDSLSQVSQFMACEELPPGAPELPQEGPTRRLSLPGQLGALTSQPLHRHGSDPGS
MIC (S. aureus 29213),MIC (S. aureus A798),Compound,"inhibition at 4 min, 10 µM (hERG K+ channel)"
≤ 0.031 µg/mL,,"COc1ccc2ccc(=O)n(C[C@H](O)[C@@H]3CC[C@@H](NCc4cc5c(cn4)OCCS5)CO3)c2n1 [Example 1, 1-((S)-2-{(2S,5R)-5-[(2,3-dihydro-4-oxa-1-thia-6-aza-naphthalen-7-ylmethyl)-amino]-tetrahydro-pyran-2-yl}-2-hydroxy-ethyl)-7-methoxy-1H-[1,8]naphthyridin-2-one]",32%
≤ 0.031 µg/mL,,"COc1ccc2ncc(=O)n(C[C@H](O)[C@@H]3CC[C@@H](NCc4cc5c(cn4)OCCS5)CO3)c2n1 [Example 11, 4-((2S)-2-{(2S,5R)-5-[(2,3-dihydro-4-oxa-1-thia-6-aza-naphthalen-7-ylmethyl)-amino]-tetrahydro-pyran-2-yl}-2-hydroxy-ethyl)-6-methoxy-4H-pyrido[2,3-b]pyrazin-3-one]",45%
0.063 µg/mL,,"COc1ccc2ncc(=O)n(C[C@H](O)[C@@H]3CC[C@@H](NCc4cc5c(nn4)OCCS5)CO3)c2n1 [Example 12, 4-((2S)-2-{(2S,5R)-5-[(6,7-dihydro-8-oxa-5-thia-1,2-diaza-naphthalen-3-ylmethyl)-amino]-tetrahydro-pyran-2-yl}-2-hydroxy-ethyl)-6-methoxy-4H-pyrido[2,3-b]pyrazin-3-one]",7%
0.125 µg/mL,,"COc1cnc2ccc(=O)n(C[C@H](O)[C@@H]3CC[C@@H](NCc4cc5c(cn4)OCCO5)CO3)c2n1 [Example 13, 5-((2S)-2-{(2S,5R)-5-[(2,3-dihydro-[1,4]dioxino[2,3-c]pyridin-7-ylmethyl)-amino]-tetrahydro-pyran-2-yl}-2-hydroxy-ethyl)-3-methoxy-5H-pyrido[2,3-b]pyrazin-6-one]",5%
≤ 0.031 µg/mL,,"COc1cnc2ccc(=O)n(C[C@H](O)[C@@H]3CC[C@@H](NCc4cc5c(cn4)OCCS5)CO3)c2n1 [Example 14, 5-((2S)-2-{(2S,5R)-5-[(2,3-dihydro-4-oxa-1-thia-6-aza-naphthalen-7-ylmethyl)-amino]-tetrahydro-pyran-2-yl}-2-hydroxy-ethyl)-3-methoxy-5H-pyrido[2,3-b]pyrazin-6-one]",
0.25 µg/mL,,"COc1cnc2ccc(=O)n(C[C@H](O)[C@@H]3CC[C@@H](NCc4cc5c(nn4)OCCS5)CO3)c2n1 [Example 15, 5-((S)-2-{(2S,5R)-5-[(6,7-dihydro-8-oxa-5-thia-1,2-diaza-naphthalen-3-ylmethyl)-amino]-tetrahydro-pyran-2-yl}-2-hydroxy-ethyl)-3-methoxy-5H-pyrido[2,3-b]pyrazin-6-one]",0%

# The next lines start with the compound.
Compound,MIC (S. aureus 29213),MIC (S. aureus A798),"inhibition at 4 min, 10 µM (hERG K+ channel)"
"COc1ccc2ccc(=O)n(C[C@H](O)[C@@H]3CC[C@@H](NCc4cc5c(cn4)OCCO5)CO3)c2n1 [Example 2, 1-((2S)-2-{(2S,5R)-5-[(2,3-dihydro-[1,4]dioxino[2,3-c]pyridin-7-ylmethyl)-amino]-tetrahydro-pyran-2-yl}-2-hydroxy-ethyl)-7-methoxy-1H-[1,8]naphthyridin-2-one]",≤ 0.031 µg/mL,≤ 0.063 µg/mL,18%
"COc1ccc2ncc(=O)n(C[C@H](O)[C@@H]3CC[C@@H](NCc4cc5c(cn4)OCCO5)CO3)c2c1 [Example 3, 1-((2S)-2-{(2S,5R)-5-[(2,3-dihydro-[1,4]dioxino[2,3-c]pyridin-7-ylmethyl)-amino]tetrahydro-pyran-2-yl}-2-hydroxy-ethyl)-7-methoxy-1H-quinoxalin-2-one]",≤ 0.031 µg/mL,≤ 0.063 µg/mL,18%
"COc1ccc2ncc(=O)n(C[C@H](O)[C@@H]3CC[C@@H](NCc4cc5c(cn4)OCCO5)CO3)c2n1 [Example 4, 4-((2S)-2-{(2S,5R)-5-[(2,3-dihydro-[1,4]dioxino[2,3-c]pyridin-7-ylmethyl)-amino]tetrahydro-pyran-2-yl}-2-hydroxy-ethyl)-6-methoxy-4H-pyrido[2,3-b]pyrazin-3-one]",≤ 0.031 µg/mL,≤ 0.063 µg/mL,7%
"COc1ccc2ccc(=O)n(C[C@H](O)[C@@H]3CC[C@@H](NCc4cc5c(nn4)OCCO5)CO3)c2n1 [Example 5, 1-((2S)-2-{(2S,5R)-5-[(6,7-dihydro-[1,4]dioxino[2,3-c]pyridazin-3-ylmethyl)-amino]tetrahydro-pyran-2-yl}-2-hydroxy-ethyl)-7-methoxy-1H-[1,8]naphthyridin-2-one]",0.063 µg/mL,,28%
"COc1ccc2ccc(=O)n(C[C@H](O)C3CCC(NCc4cc5c(cn4)OCCO5)CC3)c2n1 (stereo partly drawn) [Example 6, 1-((2R)-2-{4-[(2,3-dihydro-[1,4]dioxino[2,3-c]pyridin-7-ylmethyl)-amino]cyclohexyl}-2-hydroxy-ethyl)-7-methoxy-1H-[1,8]naphthyridin-2-one]",≤ 0.031 µg/mL,≤ 0.063 µg/mL,35%
"COc1ccc2ncc(=O)n(C[C@H](O)C3CCC(NCc4cc5c(cn4)OCCO5)CC3)c2c1 (stereo partly drawn) [Example 7, 1-((2R)-2-{4-[(2,3-dihydro-[1,4]dioxino[2,3-c]pyridin-7-ylmethyl)-amino]-cyclohexyl}-2-hydroxy-ethyl)-7-methoxy-1H-quinoxalin-2-one]",≤ 0.031 µg/mL,0.125 µg/mL,18%
"COc1ccc2ccc(=O)n(C[C@H](O)[C@@H]3CC[C@@H](NCc4cc5c(nn4)OCCS5)CO3)c2n1 [Example 8, 1-((2S)-2-{(2S,5R)-5-[(6,7-dihydro-8-oxa-5-thia-1,2-diaza-naphthalen-3-ylmethyl)-amino]-tetrahydro-pyran-2-yl}-2-hydroxy-ethyl)-7-methoxy-1H-[1,8]naphthyridin-2-one]",0.5 µg/mL,,6%
"COc1ccc2ccc(=O)n(C[C@H](O)[C@@H]3CC[C@@H](NCc4cc5c(cn4)OCS5)CO3)c2n1 [Example 9, 1-((2S)-2-hydroxy-2-{(2S,5R)-5-[(3-oxa-1-thia-5-aza-indan-6-ylmethyl)-amino]-tetrahydro-pyran-2-yl}-ethyl)-7-methoxy-1H-[1,8]naphthyridin-2-one]",≤ 0.031 µg/mL,,52%
"COc1ccc2cc(F)c(=O)n(C[C@H](O)[C@@H]3CC[C@@H](NCc4cc5c(cn4)OCS5)CO3)c2n1 [Example 10, 3-fluoro-1-((2S)-2-hydroxy-2-{(2S,5R)-5-[(3-oxa-1-thia-5-aza-indan-6-ylmethyl)-amino]-tetrahydro-pyran-2-yl}-ethyl)-7-methoxy-1H-[1,8]naphthyridin-2-one]",≤ 0.031 µg/mL,,48%
